In brackets after ≈: the same amount, converted by molar mass.
Columns and labels:
[1] = tested on: swelling of the recto-anus of rats; test: Croton oil induced swelling of the recto-anus (hemorrhoids model); format: in vivo, SD rats
Procedure: SD rats, male, age-matched 7-8 weeks old weighing 163±18 g were in the experiment. The tested animals were allowed to acclimate for a week.
A cotton swab with a diameter of 4 mm soaked with 0.16 mL of inducer (deionized water:pyridine:ethyl ether:6% croton oil/ethyl ether, 1:4:5:10) was applied to the rat's anus for 12 seconds. The final concentration of croton oil was 3%. The edema developed linearly until 7-8 hours after application and the severity of the edema was sustained for more than 24 hours. Twenty-four hours later, recto-anus tissue (approx. 10 mm long) was isolated after the rats were euthanized. The weights of rat body and recto-anus were measured. The recto-anus coefficient (RAC) was calculated using the formula: weight of recto-anus (mg)/body weight (g). RAC=weight of recto-anus (mg)/body weight (g)×100%
The rates were randomly divided into 5 groups: control, positive control and 3 test groups, and each group had 8 rats. The dose for 3 groups of rats are 10, 20 and 40 mg/kg. The dose of 0.5% CMC-Na for control group is the same as the each test group. The tested drug was fed into the stomach on the morning, once a day before the animal modeling for 5 days. The anus suppository was applied to positive control once after the animal modeling (1 mL/100 g). The weights of recto-anus and RACs were calculated, compared with the controls and subject to a student t-test.

[2] = tested on: Fibronectin secretion from bladder carcinoma cells (HTB-9); test: Fibronectin secretion (Western blot), HTB-9 cells; format: cell-based, human; conditions: 10 ug/ml
[3] = tested on: Angiopoietin 2 (Ang2) in ES2 cells; test: Angiopoietin-2 cellular content (Western blot); format: cell-based, human; conditions: low concentration (5, 10 ug/ml), 24 hours
Procedure: Methods: ES2 (human ovarian carcinoma cells) were grew in RPMI 1640 medium. 4.5 million cells were seeded in a T75 flask and grown for 24 hours before drug-treatment.
Drug-treatment: Cells cultures were treated with 5, 10 and 15 ug/ml (final concentration) of Xanifolia-Y3 [Y3-5, Y3-10, Y3-15]. or DMSO control [D-10]. After 24 hours, cells were suspended in 1 ml of SDS sample buffer (cell-extract). Samples (80 ul/lane) were applied to 10% SDS gel and electrophoresis was conducted with 100 volts for 2 hours. Protein was transferred to a nitrocellulose membrane electrophoretically. The nitrocellulose blot was blocked with 5% non-fat dry milk in PBS. The blot was then incubated with the first antibodies (goat anti-Ang2, SIGMA A0851) and second antibody (donkey anti-goat AP conjugated, Promega V115A). The immuno-bands were developed with BCIP/NBT color development system (Promega S3771).
Drug-treatment: Cells cultures were treated with 5, 10 and 15 ug/ml (final concentration) of Xanifolia-Y3 [Y3-5, Y3-10, Y3-15]. or DMSO control [D-10]. After 24 hours, cells were suspended in 1 ml of SDS sample buffer (cell-extract). Samples (80 ul/lane) were applied to a 10% SDS gel and electrophoresis was conducted with 100 volts for 2 hours. Protein was transferred to a nitrocellulose membrane electrophoretically. The nitrocellulose blot was blocked with 5% non-fat dry milk in PBS. […]

[4] = tested on: Hey8A cells inoculated into peritoneal cavity; test: Nodule formation in peritoneal cavity, Hey8A; format: in vivo, nu/nu mice; conditions: 0.25 mg/kg i.p. daily 5 days per week for two-three weeks
Description: The relationship between the nodule formation and timelines during tumor progression are established. Usually, 4 to 6 nodules are formed during the entire period of tumor progression in this system (Lander Jr., et al., 2005). We start the drug-treatment at times equivalent to 20% and 50% of full tumor progression. At these times, the number of nodule is less and the size (weight) of the nodules is smaller. At the end of the drug-treatment, animals are euthanized and number of tumor nodules is determined and the tumor size (mass) is weighted.
Animals: 40 nu/nu mice are used per experiment.
2 groups of mice (20 each) (i) Drug-treatment start at time equivalent to 20% of full tumor progression (or on 4 days after tumor inoculation) (ii) Drug-treatment starts at time equivalent to 50% of full tumor progression (or on 10 days after tumor inoculation). On the day of starting drug-treatment, half of the animals (10) will be scarified and the number and weight of nodules will measured.
Drug-Treatments: Animals are administered daily for 5 days per week for two—three weeks. Dose: 0.25 mg/kg, through i.p. route.

[5] = tested on: swelling of rats' feet induced by Carrageenin; test: Carrageenin-induced swollen feet model; format: in vivo, SD rats;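 further: percent increase in foot volume over pre-inflammation volume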
Procedure: SD rats, male, weighing 163±18 g were used in the experiment. The tested animals are allowed to acclimate for a week. The rats drink water freely. The rats were randomly divided into 5 groups: control, positive control and 3 test groups, and each group had 8 rats. The dose for 3 groups of rats are 10, 20 and 40 mg/kg. Indometacin for the positive control is 10 mg/kg and fed once after modeling. The dose of CMC-Na for the control group is the same as each test group and fed into the stomach once a day before modeling for 5 days. The tested drug was fed into the stomach 10 minutes before the animal modeling (1 mL/100 g). The volumes of right foot of each rat were measured 0.5, 1, 2 and 4 hours before and after modeling. The volumes of the right hind feet were measured at a different time, 10 minutes after inflammation induced by subcutaneous injection (with syringe needle 7) of 0.05 mL of the 1% of Carrageenin/normal saline mixture into the feet. The Rate of swelling of the feet was calculated, compared with the controls and subject to a student t-test. Rate of swelling (E) (%)=Ltn−Lt0/Lt0×100% • Ltn: volume of foot after the inflammation • Lt0: volume of foot before the inflammation

(Mouth) KB cells = test: MTT assay KB; format: cell-based; conditions: Homo sapiens

SMILES: C/C=C(/C)C(=O)O[C@H]1[C@H](OC(=O)/C(C)=C\C)[C@@]2(CO)C(CC1(C)C)C1=CCC3[C@@]4(C)CC[C@H](O[C@@H]5OC(C(=O)O)[C@@H](O)C(O[C@@H]6O[C@@H](CO)C(O)C6O)C5O[C@@H]5OC(CO)[C@H](O)C(O)C5O)C(C)(C)C4CC[C@@]3(C)[C@]1(C)[C@@H](O)[C@H]2O (stereo partly drawn) [Xanifolia-Y, 3-O-[β-D-galactopyranosyl (1→2)]-α-L-arabinofuranosy (1→3)-β-D-glucuronopyranosyl-21,22-O-diangeloyl-3β, 15α, 16α, 21β, 22α, 28-hexahydroxyolean-12-ene]
- RAC ([1]; 10 mg/Kg): 1.83 ± 0.36
- Reduction rate % ([1]; 10 mg/Kg): 21.5%
- Weight of recto-anus ([1]; 10 mg/Kg fed into the stomach once a day for 5 days): 4.68 ± 0.77 g
- RAC ([1]; 20 mg/Kg): 1.61 ± 0.24
- Reduction rate % ([1]; 20 mg/Kg): 30.9%
- Weight of recto-anus ([1]; 20 mg/Kg): 4.28 ± 0.60 g
- RAC ([1]; 40 mg/Kg): 1.51 ± 0.23
- Reduction rate % ([1]; 40 mg/Kg): 35.1%
- Weight of recto-anus ([1]; 40 mg/Kg): 3.97 ± 0.65 g
- % inhibition of Fibronectin secretion [2]: about 50%
- % inhibition of Fibronectin secretion ([2]; listed as Y3): 51%
- inhibition at 10 µg/mL ([2]; Homo sapiens): 50%
- Angiopoietin-2 immuno-band in cell extract [3]: No detectable or minimal immuno-band
- numbers of tumor nodules [4]: less
- size of tumor [4]: smaller
- Swelling rate after administration (%) ([5]; 10 mg/kg, 0.5 hour): 16.7%
- Swelling rate after administration (%) ([5]; 10 mg/kg, 1 hour): 18.5%
- Swelling rate after administration (%) ([5]; 10 mg/kg, 2 hours): 16.0%
- Swelling rate after administration (%) ([5]; 10 mg/kg, 4 hours): 10.5%
- Swelling rate after administration (%) ([5]; 20 mg/kg, 0.5 hour): 10.5%
- Swelling rate after administration (%) ([5]; 20 mg/kg, 1 hour): 13.6%
- Swelling rate after administration (%) ([5]; 20 mg/kg, 2 hours): 12.4%
- Swelling rate after administration (%) ([5]; 20 mg/kg, 4 hours): 8.5%
- Swelling rate after administration (%) ([5]; 40 mg/kg, 0.5 hour): 10.3%
- Swelling rate after administration (%) ([5]; 40 mg/kg, 1 hour): 12.6%
- Swelling rate after administration (%) ([5]; 40 mg/kg, 2 hours): 12.5%
- Swelling rate after administration (%) ([5]; 40 mg/kg, 4 hours): 6.5%
- IC50 ((Mouth) KB cells): 6 µg/mL (≈ 5.26 µM)
